In ChEMBL document CHEMBL2062390, “3-Phenyl-1H-5-pyrazolylamine-based derivatives as potent and efficacious inhibitors of FMS-like tyrosine kinase-3 (FLT3)” (Bioorg Med Chem Lett, 2012):
Calls of active or inactive are those of the source. No cut-off for these calls is given here.

Tests used:
[1] = target: T1, Receptor-type tyrosine-protein kinase FLT3 (Homo sapiens, UniProt P36888)
T1 sequence (P36888 whole entry): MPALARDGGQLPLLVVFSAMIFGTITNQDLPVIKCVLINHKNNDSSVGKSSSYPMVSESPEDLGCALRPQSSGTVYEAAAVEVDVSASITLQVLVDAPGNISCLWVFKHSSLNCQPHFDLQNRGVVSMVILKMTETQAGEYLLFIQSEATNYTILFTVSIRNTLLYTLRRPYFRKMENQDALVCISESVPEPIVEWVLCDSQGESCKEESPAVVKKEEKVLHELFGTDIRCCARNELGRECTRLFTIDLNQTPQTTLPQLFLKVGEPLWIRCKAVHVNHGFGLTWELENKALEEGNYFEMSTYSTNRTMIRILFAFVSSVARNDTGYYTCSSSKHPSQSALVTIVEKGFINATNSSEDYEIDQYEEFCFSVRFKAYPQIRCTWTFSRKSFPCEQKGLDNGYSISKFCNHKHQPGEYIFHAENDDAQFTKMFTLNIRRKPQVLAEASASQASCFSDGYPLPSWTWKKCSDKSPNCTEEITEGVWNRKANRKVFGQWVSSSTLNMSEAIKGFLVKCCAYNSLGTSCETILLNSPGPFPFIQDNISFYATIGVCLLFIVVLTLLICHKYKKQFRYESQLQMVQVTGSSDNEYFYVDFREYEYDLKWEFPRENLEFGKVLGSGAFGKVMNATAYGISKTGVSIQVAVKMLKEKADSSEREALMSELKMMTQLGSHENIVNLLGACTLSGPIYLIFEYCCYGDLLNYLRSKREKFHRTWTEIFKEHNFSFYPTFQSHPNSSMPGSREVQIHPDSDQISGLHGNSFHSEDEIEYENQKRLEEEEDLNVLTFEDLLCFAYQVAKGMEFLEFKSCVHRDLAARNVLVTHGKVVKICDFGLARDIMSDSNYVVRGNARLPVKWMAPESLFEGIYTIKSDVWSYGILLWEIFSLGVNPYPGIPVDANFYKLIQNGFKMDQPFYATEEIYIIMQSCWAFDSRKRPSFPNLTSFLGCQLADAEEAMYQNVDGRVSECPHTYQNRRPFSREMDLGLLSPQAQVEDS
Description: Inhibition of wild type FLT3

[2] = target: Vascular endothelial growth factor receptor 2 (Homo sapiens, UniProt P35968)
Chain of Vascular endothelial growth factor receptor 2 (P35968 whole entry): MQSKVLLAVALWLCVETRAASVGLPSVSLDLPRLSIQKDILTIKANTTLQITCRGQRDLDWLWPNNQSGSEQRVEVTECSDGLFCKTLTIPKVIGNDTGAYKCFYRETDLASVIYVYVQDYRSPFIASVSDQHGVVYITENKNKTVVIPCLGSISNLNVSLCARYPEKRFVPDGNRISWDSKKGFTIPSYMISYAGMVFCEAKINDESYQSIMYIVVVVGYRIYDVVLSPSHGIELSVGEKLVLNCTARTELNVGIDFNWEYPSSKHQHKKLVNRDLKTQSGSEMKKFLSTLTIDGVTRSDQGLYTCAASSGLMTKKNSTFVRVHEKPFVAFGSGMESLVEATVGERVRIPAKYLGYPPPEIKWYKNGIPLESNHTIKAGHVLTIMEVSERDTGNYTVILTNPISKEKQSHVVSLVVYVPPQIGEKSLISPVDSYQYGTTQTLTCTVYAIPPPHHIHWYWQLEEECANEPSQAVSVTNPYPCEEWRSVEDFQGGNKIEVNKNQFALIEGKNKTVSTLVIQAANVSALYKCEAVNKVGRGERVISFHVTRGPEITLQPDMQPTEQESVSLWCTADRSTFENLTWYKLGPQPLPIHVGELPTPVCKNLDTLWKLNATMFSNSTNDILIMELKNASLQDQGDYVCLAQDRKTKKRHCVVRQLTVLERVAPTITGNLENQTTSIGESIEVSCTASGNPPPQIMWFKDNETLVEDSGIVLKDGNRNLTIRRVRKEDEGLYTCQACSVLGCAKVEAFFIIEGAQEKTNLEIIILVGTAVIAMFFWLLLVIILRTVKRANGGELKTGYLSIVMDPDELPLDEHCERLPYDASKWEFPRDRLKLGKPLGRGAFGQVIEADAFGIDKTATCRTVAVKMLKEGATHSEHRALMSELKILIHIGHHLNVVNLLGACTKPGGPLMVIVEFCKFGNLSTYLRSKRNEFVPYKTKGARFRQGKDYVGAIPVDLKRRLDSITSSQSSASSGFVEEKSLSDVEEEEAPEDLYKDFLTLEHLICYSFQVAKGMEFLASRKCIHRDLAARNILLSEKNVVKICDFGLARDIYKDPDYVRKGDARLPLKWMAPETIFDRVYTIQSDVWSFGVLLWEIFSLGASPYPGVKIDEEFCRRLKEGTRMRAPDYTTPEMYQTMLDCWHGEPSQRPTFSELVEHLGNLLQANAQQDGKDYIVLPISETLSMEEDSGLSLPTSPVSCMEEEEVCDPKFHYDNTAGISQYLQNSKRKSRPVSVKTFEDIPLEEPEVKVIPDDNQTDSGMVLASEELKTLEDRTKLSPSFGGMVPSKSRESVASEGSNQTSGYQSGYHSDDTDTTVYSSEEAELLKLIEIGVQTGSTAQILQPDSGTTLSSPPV

[3] = target: Vascular endothelial growth factor receptor 1 (Homo sapiens, UniProt P17948)
Chain of Vascular endothelial growth factor receptor 1 (P17948 whole entry): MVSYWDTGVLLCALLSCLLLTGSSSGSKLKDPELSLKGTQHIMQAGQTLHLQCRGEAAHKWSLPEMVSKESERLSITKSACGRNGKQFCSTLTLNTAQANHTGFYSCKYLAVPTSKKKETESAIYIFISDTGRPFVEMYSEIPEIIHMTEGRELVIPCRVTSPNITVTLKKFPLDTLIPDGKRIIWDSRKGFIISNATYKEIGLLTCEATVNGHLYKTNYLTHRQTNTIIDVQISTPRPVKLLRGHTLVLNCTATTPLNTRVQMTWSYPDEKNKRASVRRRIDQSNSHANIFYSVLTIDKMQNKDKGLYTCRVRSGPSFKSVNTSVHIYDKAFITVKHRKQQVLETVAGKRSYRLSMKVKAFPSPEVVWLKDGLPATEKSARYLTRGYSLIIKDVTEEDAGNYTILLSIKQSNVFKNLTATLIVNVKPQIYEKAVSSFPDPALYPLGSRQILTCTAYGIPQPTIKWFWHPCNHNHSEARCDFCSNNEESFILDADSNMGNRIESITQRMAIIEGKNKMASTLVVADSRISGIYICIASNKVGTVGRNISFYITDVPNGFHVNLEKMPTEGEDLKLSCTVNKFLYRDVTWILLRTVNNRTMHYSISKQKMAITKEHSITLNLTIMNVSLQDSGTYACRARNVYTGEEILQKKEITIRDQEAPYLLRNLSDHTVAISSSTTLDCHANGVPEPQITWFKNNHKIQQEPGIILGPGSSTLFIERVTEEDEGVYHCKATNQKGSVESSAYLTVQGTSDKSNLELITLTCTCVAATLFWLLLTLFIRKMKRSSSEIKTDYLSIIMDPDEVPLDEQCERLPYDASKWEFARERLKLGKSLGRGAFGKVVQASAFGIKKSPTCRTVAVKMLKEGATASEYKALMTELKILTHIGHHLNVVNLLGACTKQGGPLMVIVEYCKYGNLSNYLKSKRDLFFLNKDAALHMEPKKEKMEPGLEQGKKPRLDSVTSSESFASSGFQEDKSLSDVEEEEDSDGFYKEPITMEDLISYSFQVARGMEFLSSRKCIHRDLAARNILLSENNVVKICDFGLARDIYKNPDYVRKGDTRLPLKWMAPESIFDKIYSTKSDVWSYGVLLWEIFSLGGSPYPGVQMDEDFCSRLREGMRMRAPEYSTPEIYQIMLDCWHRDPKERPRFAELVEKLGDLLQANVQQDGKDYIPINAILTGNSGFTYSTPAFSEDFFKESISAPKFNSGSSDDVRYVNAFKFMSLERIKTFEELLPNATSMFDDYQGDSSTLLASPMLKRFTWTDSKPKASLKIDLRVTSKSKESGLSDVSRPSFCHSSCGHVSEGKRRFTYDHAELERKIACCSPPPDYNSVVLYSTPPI

Aurora kinase A = target: T2, Aurora kinase A (Homo sapiens, UniProt O14965)
T2 sequence (O14965 whole entry): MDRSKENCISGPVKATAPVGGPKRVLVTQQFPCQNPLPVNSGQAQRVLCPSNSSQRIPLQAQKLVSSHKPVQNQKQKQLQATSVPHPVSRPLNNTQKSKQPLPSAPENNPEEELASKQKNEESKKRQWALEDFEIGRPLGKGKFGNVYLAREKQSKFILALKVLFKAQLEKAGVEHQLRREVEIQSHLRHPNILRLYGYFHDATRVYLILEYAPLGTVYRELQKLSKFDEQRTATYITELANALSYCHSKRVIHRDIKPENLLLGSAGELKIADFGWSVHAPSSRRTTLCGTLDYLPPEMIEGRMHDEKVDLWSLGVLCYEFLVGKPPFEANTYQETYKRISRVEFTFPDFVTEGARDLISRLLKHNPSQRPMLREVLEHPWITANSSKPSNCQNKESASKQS

MOLM-13 [4] = experiment: cells; conditions: Homo sapiens
Description: Antiproliferative activity against human MOLM13 cells expressing FLT3-ITD mutant

[5] = AUC (0 to 4 hrs) in rat at 2 mg/kg, iv; format: ADME, organism-based; parameters: time < 4 hr, dose 2 mg/kg, route intravenous; conditions: plasma
[6] = Plasma concentration in Sprague-Dawley rat at 2 mg/kg, iv at 24 hrs; format: ADME, organism-based; parameters: dose 2 mg/kg, route intravenous
[7] = Volume of distribution in Sprague-Dawley rat at 2 mg/kg, iv; format: ADME, organism-based; parameters: dose 2 mg/kg, route intravenous; conditions: in vivo
[8] = Plasma clearance in Sprague-Dawley rat at 2 mg/kg, iv; format: ADME, organism-based; parameters: dose 2 mg/kg, route intravenous
[9] = Half life in Sprague-Dawley rat plasma at 2 mg/kg, iv; format: ADME, organism-based; parameters: dose 2 mg/kg, route intravenous
[10] = Oral bioavailability in Sprague-Dawley rat; format: ADME, organism-based; conditions: in vivo
MOLM-13 [11] = experiment: Antitumor activity against human MOLM13 cells expressing FLT3-ITD mutant xenografted in athymic nude NU-Fox1 mouse assessed as tumor regression at 25 mg/kg, iv administered as single dose; format: functional, organism-based; parameters: dose 25 mg/kg
MOLM-13 [12] = experiment: Antitumor activity against human MOLM13 cells expressing FLT3-ITD mutant xenografted in athymic nude NU-Fox1 mouse assessed as tumor regression at 25 mg/kg, iv administered QD on days 1 to 5 and 8 to 12 measured up to 30 days; format: functional, organism-based; parameters: dose 25 mg/kg
Mus musculus = experiment: Toxicity in athymic nude NU-Fox1 mouse xenografted with human MOLM-13 cells assessed as body weight loss at 25 mg/kg, iv administered QD on days 1 to 5 and 8 to 12 measured up to 30 days; format: organism-based; parameters: dose 25 mg/kg, route intravenous; conditions: in vivo, 720 h
MV4-11 = experiment: Antiproliferative activity against human MV4-11 cells expressing FLT3-ITD mutant; format: functional
[13] = target: Receptor-type tyrosine-protein kinase FLT3 (Homo sapiens) (UniProt P36888); experiment: (§1) Inhibition of FLT3 autophosphorylation in human MV4-11 cells after 2 hrs by Western blot analysis; format: cell-based
[14] = target: T1, Receptor-type tyrosine-protein kinase FLT3; experiment: as §1; format: cell-based
[15] = Cmax in Sprague-Dawley rat at 2 mg/kg, iv at 5 mins; format: ADME, organism-based; parameters: dose 2 mg/kg, route intravenous; conditions: in vivo
[16] = AUC in Sprague-Dawley rat at 2 mg/kg, iv; format: ADME, organism-based; parameters: dose 2 mg/kg, route intravenous; conditions: plasma

SMILES | IC50 [1] | IC50 [2] | IC50 [3] | IC50 (Aurora kinase A) | GI50 (MOLM-13 [4]) | other results
CN1CCN(c2ccc(C(=O)Nc3cc(-c4ccc(NC(=O)Oc5ccccc5)cc4)n[nH]3)cc2)CC1 | 12 nM | 180 nM | 320 nM | > 1000 nM | 5 nM | –
CN1CCN(c2ccc(C(=O)Nc3cc(-c4ccc(CNS(=O)(=O)c5ccccc5)cc4)n[nH]3)cc2)CC1 | 140 nM | > 1000 nM | > 1000 nM | 1000 nM | 47 nM | –
O=C(NCc1ccc(-c2cc(NC(=O)c3ccc(OCCN4CCOCC4)cc3)[nH]n2)cc1)OCc1cccnc1 | 20 nM | > 1000 nM | > 1000 nM | > 1000 nM | 7 nM | –
CN1CCN(c2ccc(C(=O)Nc3cc(-c4ccc(NC(=O)OCc5ccccc5)cc4)n[nH]3)cc2)CC1 | 7 nM | 48 nM | 200 nM | > 1000 nM | 16 nM | –
CN1CCN(Cc2ccc(C(=O)Nc3cc(-c4ccc(CNC(=O)OCc5ccccc5)cc4)n[nH]3)cc2)CC1 | 7 nM | 170 nM | 320 nM | > 1000 nM | 4 nM | –
Cc1nc(Nc2cc(-c3ccc(CNC(=O)OCc4cc(C)on4)cc3)n[nH]2)cc(N2CCN(C)CC2)n1 | 5 nM | > 1000 nM | > 1000 nM | > 1000 nM | 4 nM | –
CN1CCN(c2ccc(C(=O)Nc3cc(-c4ccc(NS(=O)(=O)c5ccccc5)cc4)n[nH]3)cc2)CC1 | – | > 1000 nM | > 1000 nM | > 1000 nM | 500 nM | –
CCOC(=O)NCc1ccc(-c2cc(NC(=O)c3ccc(N4CCN(C)CC4)cc3)[nH]n2)cc1 | 17 nM | 560 nM | > 1000 nM | > 1000 nM | 48 nM | –
Cc1nc(Nc2cc(-c3ccc(CNC(=O)OCc4cccnc4)cc3)n[nH]2)cc(N2CCN(CCO)CC2)n1 | 21 nM | > 1000 nM | > 1000 nM | > 1000 nM | 3 nM | –
O=C(Nc1ccc(-c2cc(NC(=O)c3ccc(OCCN4CCCC4)cc3)[nH]n2)cc1)Oc1ccccc1 | 40 nM | 300 nM | > 1000 nM | > 1000 nM | 47 nM | –
Cc1nc(Nc2cc(-c3ccc(CNC(=O)OCc4ccccc4)cc3)n[nH]2)cc(N2CCNCC2)n1 | 17 nM | 190 nM | 82 nM | 350 nM | 6 nM | –
CN1CCN(c2ccc(C(=O)Nc3cc(-c4ccc(CNC(=O)Oc5ccccc5)cc4)n[nH]3)cc2)CC1 | 16 nM | 92 nM | 54 nM | > 1000 nM | 20 nM | –
Cc1nc(Nc2cc(-c3ccc(CNC(=O)OCc4ccccc4)cc3)n[nH]2)cc(N2CCN(CCO)CC2)n1 | 10 nM | 240 nM | 290 nM | 170 nM | 2 nM | –
Cc1nc(Nc2cc(-c3ccc(CNC(=O)OCc4ccccc4)cc3)n[nH]2)cc(N2CCN(C)CC2)n1 | 18 nM | 310 nM | 420 nM | 430 nM | 2 nM | –
CN1CCN(c2ccc(C(=O)Nc3cc(-c4ccc(CNC(=O)OCc5ccccc5)cc4)n[nH]3)cc2)CC1 | 6 nM | 100 nM | 20 nM | 880 nM | 2 nM | –

Further molecules by falling IC50 [1], results first:

IC50 [1] | IC50 [2] | IC50 [3] | IC50 (Aurora kinase A) | GI50 (MOLM-13 [4]) | SMILES | other results
72 nM | > 1000 nM | > 1000 nM | > 1000 nM | 5 nM | Cc1nc(Nc2cc(-c3ccc(CNC(=O)OCc4cc(C)on4)cc3)n[nH]2)cc(N2CCN(CCO)CC2)n1 | AUC(0-t) at 4 h [5]: 443 ng·h/mL
52 nM | > 1000 nM | > 1000 nM | > 1000 nM | 4 nM | Cc1cc(COC(=O)NCc2ccc(-c3cc(NC(=O)c4ccc(OCCN5CCOCC5)cc4)[nH]n3)cc2)no1 | AUC(0-t) at 4 h [5]: 1030 ng·h/mL
43 nM | 480 nM | 590 nM | > 1000 nM | 2 nM | Cc1cc(COC(=O)NCc2ccc(-c3cc(NC(=O)c4ccc(OCCN5CCCC5)cc4)[nH]n3)cc2)no1 | AUC(0-t) at 4 h [5]: 448 ng·h/mL
35 nM | > 1000 nM | > 1000 nM | > 1000 nM | 8 nM | O=C(NCc1ccc(-c2cc(NC(=O)c3ccc(OCCN4CCCC4)cc3)[nH]n2)cc1)OCc1cccnc1 | AUC(0-t) at 4 h [5]: 266 ng·h/mL
27 nM | 370 nM | 350 nM | > 1000 nM | 1 nM | Cc1cc(COC(=O)NCc2ccc(-c3cc(NC(=O)c4ccc(N5CCN(C)CC5)cc4)[nH]n3)cc2)no1 | –
19 nM | 240 nM | 180 nM | > 1000 nM | 9 nM | O=C(NCc1ccc(-c2cc(NC(=O)c3ccc(OCCCN4CCCC4)cc3)[nH]n2)cc1)OCc1ccccc1 | –
17 nM | 370 nM | 370 nM | 590 nM | 8 nM | O=C(NCc1ccc(-c2cc(NC(=O)c3ccc(OCCN4CCOCC4)cc3)[nH]n2)cc1)OCc1ccccc1 | –
14 nM | 220 nM | 250 nM | > 1000 nM | 2 nM | CN1CCN(c2ccc(C(=O)Nc3cc(-c4ccc(CNC(=O)OCc5cccnc5)cc4)n[nH]3)cc2)CC1 | AUC(0-t) at 4 h [5]: 272 ng·h/mL
10 nM | 120 nM | 70 nM | > 1000 nM | 2 nM | O=C(NCc1ccc(-c2cc(NC(=O)c3ccc(OCCN4CCCC4)cc3)[nH]n2)cc1)OCc1ccccc1 | concentration at 24 h [6]: 17 nM; Vd [7]: 6 L/kg; clearance [8]: 16.2 mL/min/kg; half-life [9]: 6.2 h; bioavailability [10]: 5%; Activity (MOLM-13 [11]): Active; Activity (MOLM-13 [12]): Active; Activity (Mus musculus): Non-toxic; GI50 (MV4-11): 3 nM; inhibition [13]: Dose-dependent effect; IC50 [14]: 1 nM; AUC(0-t) at 4 h [5]: 1380 ng·h/mL; Cmax [15]: 5430 nM; AUC [16]: 5.79 µM·h
4 nM | > 1000 nM | > 1000 nM | > 1000 nM | 2 nM | Cc1nc(Nc2cc(-c3ccc(CNC(=O)OCc4cccnc4)cc3)n[nH]2)cc(N2CCN(C)CC2)n1 | –
